Measured values reported in PMC8041284, “Tunable Methacrylamides for Covalent Ligand Directed Release Chemistry” (Journal of the American Chemical Society, 2021).
Like-named read-outs stand apart in the source and are kept apart here.

Molecular target: BTK (Homo sapiens, UniProt Q06187)
Test: biochemical
[1] = read-out: BTK inhibition (%), 0.75 uM BTK, […] probe 3l, 15 min preincubation

Sequence of BTK (Q06187 402-655 limits assumed): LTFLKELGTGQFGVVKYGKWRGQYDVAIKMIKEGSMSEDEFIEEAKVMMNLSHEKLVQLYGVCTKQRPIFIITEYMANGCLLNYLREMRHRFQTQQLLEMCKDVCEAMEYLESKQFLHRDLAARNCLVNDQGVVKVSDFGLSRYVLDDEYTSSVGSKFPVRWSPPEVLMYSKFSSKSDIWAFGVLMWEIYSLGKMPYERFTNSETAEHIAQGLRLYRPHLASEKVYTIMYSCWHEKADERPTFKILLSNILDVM

## O=C(/C=C/c1ccccc1)NC(NC(=S)Nc1ccc(Cl)cc1)C(Cl)(Cl)Cl (stereo not shown) [PCM-0095765]
[1]
  inhibition at 10 µM: 34%

## CC(C)=CCCC(C)CC=O (stereo not shown) [PCM-0216209]
[1]
  inhibition at 10 µM: 4.6%

## CC[C@H]1CN2CC[C@]3(C(=O)Nc4ccccc43)[C@@H]2C[C@@H]1/C(=C\OC)C(=O)OC [PCM-0216305]
[1]
  inhibition at 10 µM: 3.9%

## CNC[C@H](O)c1cccc(O)c1 [PCM-0064848]
[1]
  inhibition at 10 µM: -20.2%

## O=C1C=CC[C@@H]2[C@H]3CCCN4CCC[C@@H](CN12)[C@@H]34 [PCM-0094851]
[1]
  inhibition at 10 µM: 13.2%

## CC(C)Oc1ccc(-c2nc(-c3cccc4c3CC[C@@H]4NCCO)no2)cc1C#N [PCM-0215588]
[1]
  inhibition at 10 µM: -5.5%

## N[C@@H](CSCCB(O)O)C(=O)O [PCM-0215605]
[1]
  inhibition at 10 µM: -5.4%

## CC1(C)CC[C@]2(C)CC[C@]3(C)C(=CC[C@@H]4[C@@]5(C)CC[C@@H](O)[C@](C)(C(=O)O)[C@@H]5CC[C@]43C)[C@@H]2C1 [PCM-0216570]
[1]
  inhibition at 10 µM: -6.9%

## CN(C)N(C)C(=O)[C@@]1(Cc2ccccc2)CCCN(C(=O)[C@@H](Cc2c[nH]c3ccccc23)NC(=O)C(C)(C)N)C1 [PCM-0215100]
[1]
  inhibition at 10 µM: 4.6%

## O=c1cc(-c2cccc3c2Sc2ccccc2S3)oc(N2CCOCC2)c1 [PCM-0095067]
[1]
  inhibition at 10 µM: -12.4%

## O=C(NC1(c2ccccc2)CC1)c1c(CN2CCC(N3CCCCC3)CC2)c(-c2cccc(C(F)(F)F)c2)nc2cc(Br)ccc12 [PCM-0215818]
[1]
  inhibition at 10 µM: 36.3%

## C#CCN[C@@H]1CCc2ccccc21 [PCM-0090264]
[1]
  inhibition at 10 µM: -9.3%

## C[C@@H](O)[C@H]1C(=O)N2C(C(=O)[O-])=C(SC3Cn4cnc[n+]4C3)[C@H](C)[C@H]12 (stereo partly shown) [PCM-0215353]
[1]
  inhibition at 10 µM: -18.7%

## O=C(O)CNC(=O)C1C(=O)N(C2CCCCC2)C(=O)N(C2CCCCC2)C1=O [PCM-0215600]
read-out: BTK inhibition (%)
  inhibition at 10 µM: 13.9%

## CC(C)n1cnc2c(NCCc3ccc(O)cc3)nc(-c3csc4ccccc34)nc21 [PCM-0095500]
[1]
  inhibition at 10 µM: 34.2%

## N#CC(=C(/N)Sc1ccccc1N)/C(C#N)=C(\N)Sc1ccccc1N [PCM-0064783]
[1]
  inhibition at 10 µM: -4.1%

## CC12CC(c3ccoc3)OC13CC(OC3=O)C1C3CC(CC12)OC3=O (stereo not shown) [PCM-0216321]
[1]
  inhibition at 10 µM: 2.3%

## CCN(CC)CCOC(=O)c1ccc(N)cc1 [PCM-0065363]
[1]
  inhibition at 10 µM: 3.9%

## CCC[C@H](Nc1nc(-c2ccc(NC(=O)NCC)c(OC)c2)ncc1C)c1cccnc1 [PCM-0095772]
[1]
  inhibition at 10 µM: -14%

## O=C(O)c1ccc(CN2CCC(CN[C@@H]3C[C@H]3c3ccccc3)CC2)cc1 [PCM-0215597]
[1]
  inhibition at 10 µM: 0.8%

## C=C1CC[C@@H]2[C@](C)(CO)[C@H](O)CC[C@@]2(C)[C@H]1C/C=C1\C=COC1=O [PCM-0215003]
[1]
  inhibition at 10 µM: 14%

## OC[C@H]1O[C@@H](Oc2cc3c(O)cc(O)cc3[o+]c2-c2ccc(O)c(O)c2)[C@H](O)[C@@H](O)[C@@H]1O [PCM-0216543]
[1]
  inhibition at 10 µM: 23.9%

## O=C(O)CCc1c[nH]c2ccccc12 [PCM-0215055]
[1]
  inhibition at 10 µM: -34.2%

## C=C[C@@H]1C[C@]1(NC(=O)[C@@H]1C[C@@H]2CN1C(=O)[C@H](C(C)(C)C)NC(=O)O[C@@H]1C[C@H]1CCCCCc1nc3ccc(OC)cc3nc1O2)C(=O)NS(=O)(=O)C1CC1 [PCM-0214895]
[1]
  inhibition at 10 µM: -13.2%

## COc1ccc(CC2c3cc(OC)c(OC)cc3CC[N+]2(C)CCC(=O)OCCCCCOC(=O)CC[N+]2(C)CCc3cc(OC)c(OC)cc3C2Cc2ccc(OC)c(OC)c2)cc1OC (stereo not shown) [PCM-0085763]
[1]
  inhibition at 10 µM: -16.3%

## C/C(=C(\CCOC(=O)c1ccccc1)SC(=O)c1ccccc1)N(C=O)Cc1cnc(C)nc1N [PCM-0216084]
[1]
  inhibition at 10 µM: 4.6%

## CCn1cc(C(=O)O)c(=O)c2c(N)c(F)c(NC3CCCCC3)cc21 [PCM-0215625]
[1]
  inhibition at 10 µM: 5.4%

## CN(C)[C@@H]1C(=O)C(C(N)=O)=C(O)[C@@]2(O)C(=O)C3=C(O)c4c(O)ccc(Cl)c4[C@@](C)(O)[C@H]3C[C@@H]12 [PCM-0215204]
[1]
  inhibition at 10 µM: 10.2%

## O=c1c(-n2ccnn2)c[nH]n1-c1cc(N2CCOCC2)ncn1 [PCM-0215593]
[1]
  inhibition at 10 µM: -16.2%

## CCNC(=O)CCC/C=C\C[C@@H]1[C@@H](/C=C/[C@@H](O)CCc2ccccc2)[C@H](O)C[C@@H]1O [PCM-0095085]
[1]
  inhibition at 10 µM: 15.2%

## O=C(Nc1cccnc1)c1cc(-c2ccnc(F)c2)ccc1OCc1ccccc1 [PCM-0213433]
[1]
  inhibition at 10 µM: 2.1%

## Nc1[nH]c(=O)nc2c1ncn2[C@@H]1O[C@H](CO)[C@@H](O)[C@H]1O [PCM-0216517]
[1]
  inhibition at 10 µM: -11.6%

## CN1CCN(CCCNc2ncc(Cl)c(-c3cc4c(C(=O)NC5CC5)cccc4s3)n2)CC1 [PCM-0215458]
[1]
  inhibition at 10 µM: -10.8%

## CC(=O)OCC(=O)[C@@]12N=C(C)O[C@@H]1C[C@H]1[C@@H]3CCC4=CC(=O)C=C[C@]4(C)[C@H]3[C@@H](O)C[C@@]12C [PCM-0086410]
[1]
  inhibition at 10 µM: -7.6%

## C[C@H]1[C@H](C)CC[C@]2(C(=O)O[C@@H]3O[C@H](CO[C@@H]4O[C@H](CO)[C@@H](O[C@@H]5O[C@@H](C)[C@H](O)[C@@H](O)[C@H]5O)[C@H](O)[C@H]4O)[C@@H](O)[C@H](O)[C@H]3O)CC[C@]3(C)C(=CC[C@@H]4[C@@]5(C)C[C@@H](O)[C@H](O)[C@@](C)(CO)[C@@H]5[C@H](O)C[C@]43C)[C@H]12 [PCM-0215102]
[1]
  inhibition at 10 µM: 10.1%

## Cc1ccccc1N1CCN(CCc2nnc3n2CCCC3)CC1 [PCM-0216139]
[1]
  inhibition at 10 µM: 3.9%

## O[C@@H](COc1cccc2ncccc12)CN1CCN(C2c3ccccc3[C@@H]3[C@H](c4ccccc42)C3(F)F)CC1 (stereo partly shown) [PCM-0095161]
[1]
  inhibition at 10 µM: 103%

## CC(=O)O[C@H]1C(=O)[C@@]2(C)[C@H]([C@H](OC(=O)c3ccccc3)[C@]3(O)C[C@H](OC(=O)[C@H](O)[C@@H](NC(=O)c4ccccc4)c4ccccc4)C(C)=C1C3(C)C)[C@]1(OC(C)=O)CO[C@@H]1C[C@@H]2O [PCM-0214601]
[1]
  inhibition at 10 µM: -17.9%

## CN(C)C(=O)Nc1cccc(-c2ccc(N(C)C)cc2)c1 [PCM-0095740]
[1]
  inhibition at 10 µM: -3.1%

## O=C1C(Cl)=C(N2CCOCC2)C(=O)N1c1ccc(Cl)c(Cl)c1 [PCM-0215236]
[1]
  inhibition at 10 µM: -0.8%

## C[C@H]1C[C@H]2[C@@H]3C[C@H](F)C4=CC(=O)C=C[C@]4(C)[C@@]3(F)[C@@H](O)C[C@]2(C)[C@@]1(O)C(=O)CO [PCM-0216237]
[1]
  inhibition at 10 µM: 9%

## CN(C)CCC(c1ccc(Cl)cc1)c1ccccn1 (stereo not shown) [PCM-0064500]
[1]
  inhibition at 10 µM: 6.9%

## C/C(=C\C(=O)OCCCCCCCCC(=O)O)C[C@@H]1OC[C@H](C[C@@H]2O[C@H]2[C@@H](C)[C@H](C)O)[C@@H](O)[C@H]1O [PCM-0101899]
[1]
  inhibition at 10 µM: 7%

## CCc1ccc(OCc2ccccc2C(=O)Nc2ccc3nc(C)cc(N)c3c2)cc1 [PCM-0095441]
[1]
  inhibition at 10 µM: 33.5%

## CCN(CC)Cc1cc(Nc2ccnc3cc(Cl)ccc23)ccc1O [PCM-0085909]
[1]
  inhibition at 10 µM: 8.3%

## C=C1CCC[C@]2(C)Cc3occ(C)c3C[C@@H]12 [PCM-0216433]
[1]
  inhibition at 10 µM: 2.3%

## CC(=O)OCc1ccccc1 [PCM-0216204]
[1]
  inhibition at 10 µM: 10.8%

## CC[C@H](c1ccc(O)cc1)[C@@H](CC)c1ccc(O)cc1 [PCM-0095223]
[1]
  inhibition at 10 µM: -11.7%

## CCC1=C[C@@H]2CN(C1)Cc1c([nH]c3ccccc13)[C@@](C(=O)OC)(c1cc3c(cc1OC)N(C)[C@H]1[C@@](O)(C(=O)OC)[C@H](OC(C)=O)[C@]4(CC)C=CCN5CC[C@]31[C@@H]54)C2 [PCM-0214792]
[1]
  inhibition at 10 µM: 14%

## CC(C)C[C@H](NC(=O)CNC(=O)c1cc(Cl)ccc1Cl)B1OC(=O)CC(CC(=O)O)(C(=O)O)O1 (stereo partly shown) [PCM-0095225]
[1]
  inhibition at 10 µM: -2.1%

## CC(C)[C@H](N)C(=O)OCC(CO)OCn1cnc2c(=O)[nH]c(N)nc21 (stereo partly shown) [PCM-0214750]
[1]
  inhibition at 10 µM: -2.3%

## CC1=CC(=O)CC(C)(C)[C@@]1(O)/C=C/C(C)=C\C(=O)O [PCM-0215371]
[1]
  inhibition at 10 µM: 9.3%

## C[C@@H](NCCc1ccc(O)cc1)[C@@H](O)c1ccc(O)cc1 [PCM-0214689]
[1]
  inhibition at 10 µM: 0%

## CC1(N)CCN(c2cnc(-c3cccc(Cl)c3Cl)c(N)n2)CC1 [PCM-0215991]
[1]
  inhibition at 10 µM: 14.7%

## CCOC(=O)[C@H](CCc1ccccc1)N[C@H]1CS[C@H](c2cccs2)CN(CC(=O)O)C1=O [PCM-0095261]
[1]
  inhibition at 10 µM: -1.6%

## C[C@@H]1O[C@@H](O[C@H]2[C@H](O)[C@@H](O)[C@H](OC[C@H]3O[C@@H](OC(=O)[C@]45CCC(C)(C)C[C@H]4C4=CC[C@@H]6[C@@]7(C)CC[C@H](O[C@@H]8OC[C@H](O)[C@H](O)[C@H]8O)[C@@](C)(CO)[C@@H]7CC[C@@]6(C)[C@]4(C)CC5)[C@H](O)[C@@H](O)[C@@H]3O)O[C@@H]2CO)[C@H](O)[C@H](O)[C@H]1O [PCM-0216340]
[1]
  inhibition at 10 µM: -10.2%

## O=C1Nc2ccc(CN3C(=O)CSC3=O)cc2/C1=C/c1cc(CN2CCOCC2)c[nH]1 [PCM-0215763]
[1]
  inhibition at 10 µM: -11%

## Cc1c(C(=O)N2CCOc3ccc(-c4ccc(N)nc4)cc3C2)ccc(S(C)(=O)=O)c1F [PCM-0215244]
[1]
  inhibition at 10 µM: 1.4%

## CN(C)C(=O)COC(=O)Cc1ccc(OC(=O)c2ccc(N=C(N)N)cc2)cc1 [PCM-0095541]
[1]
  inhibition at 10 µM: -6.2%

## CCOC(=O)O[C@]1(C(=O)OCCl)CC[C@H]2[C@@H]3CCC4=CC(=O)C=C[C@]4(C)[C@H]3[C@@H](O)C[C@@]21C [PCM-0095115]
[1]
  inhibition at 10 µM: 13.8%

## OC[C@H]1O[C@@H](Oc2c(O)cc(O)cc2/C=C/c2ccc(O)cc2)[C@H](O)[C@@H](O)[C@@H]1O [PCM-0215025]
[1]
  inhibition at 10 µM: 9.7%

## COC(=O)c1ccc2c(c1)[nH]c1ncnc(NCCCN3CCCCC3)c12 [PCM-0215451]
[1]
  inhibition at 10 µM: -0.8%

## CC(NC(=O)c1ccccc1N=Cc1c(O)ccc2ccccc12)c1ccccc1 (stereo not shown) [PCM-0095400]
[1]
  inhibition at 10 µM: 9%

## CCOC(=O)[C@H](CCc1ccccc1)N[C@@H](C)C(=O)N(CC(=O)O)C1Cc2ccccc2C1 [PCM-0216640]
[1]
  inhibition at 10 µM: -10%

## CCC(CC)CC1(C(=O)Nc2ccccc2SC(=O)C(C)C)CCCCC1 [PCM-0095336]
[1]
  inhibition at 10 µM: 6.2%

## Cc1onc(-c2c(F)cccc2Cl)c1C(=O)N[C@@H]1C(=O)N2[C@@H]1SC(C)(C)[C@@H]2C(=O)O [PCM-0216122]
[1]
  inhibition at 10 µM: -1.6%

## CCCCOc1ccc(C(=O)Nc2ccc(F)cc2F)cc1 [PCM-0095388]
[1]
  inhibition at 10 µM: -5.4%

## NCCCNCCCCNCCCN [PCM-0065483]
[1]
  inhibition at 10 µM: -26.9%

## c1ccc2c(c1)CCCC2C1=NCCN1 (stereo not shown) [PCM-0064782]
[1]
  inhibition at 10 µM: -11%

## CN1CCN2c3ccccc3Cc3ccccc3C2C1 (stereo not shown) [PCM-0065420]
[1]
  inhibition at 10 µM: 12.4%
